# In publication PMC4912077 (PLoS ONE, 2016):
# Entries after “also recorded” stand apart in the source; their conditions may differ. Like-named read-outs stand apart in the source and are kept apart here.
# How the values were obtained:
# Alpha2C = target: T1, Alpha2C (Homo sapiens, UniProt P18825); assay: NIMH PDSP radioligand binding, Alpha2C
# T1 sequence (P18825 1-462): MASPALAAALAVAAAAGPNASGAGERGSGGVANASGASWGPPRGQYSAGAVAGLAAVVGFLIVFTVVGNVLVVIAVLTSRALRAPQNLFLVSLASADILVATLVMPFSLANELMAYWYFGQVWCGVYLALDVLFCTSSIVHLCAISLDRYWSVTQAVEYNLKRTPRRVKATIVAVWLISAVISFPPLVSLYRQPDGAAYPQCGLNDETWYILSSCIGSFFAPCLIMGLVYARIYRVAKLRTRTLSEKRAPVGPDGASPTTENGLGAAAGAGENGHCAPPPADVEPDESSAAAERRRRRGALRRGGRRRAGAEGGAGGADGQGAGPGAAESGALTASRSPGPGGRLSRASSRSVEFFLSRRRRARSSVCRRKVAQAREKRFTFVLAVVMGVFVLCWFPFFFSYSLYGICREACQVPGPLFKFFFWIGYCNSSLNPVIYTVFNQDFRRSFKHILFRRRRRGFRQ
# Experimental: (§1) Radioligands and concentrations used for additional 45 CNS receptor binding assays are listed as supporting information (S1 Table). This work was performed by the National Institute of Mental Health Psychoactive Drug Screening Program (NIMH PDSP) as described previously.[26] Briefly target compounds were dissolved in DMSO and subjected to a primary screen at 10,000 nM concentration. […] Additional experimental details are available in the NIMH PDSP assay protocol book.
# KOR = KOR (Homo sapiens, UniProt P41145); assay: NIMH PDSP radioligand binding, KOR
# KOR, sequence (P41145 whole entry): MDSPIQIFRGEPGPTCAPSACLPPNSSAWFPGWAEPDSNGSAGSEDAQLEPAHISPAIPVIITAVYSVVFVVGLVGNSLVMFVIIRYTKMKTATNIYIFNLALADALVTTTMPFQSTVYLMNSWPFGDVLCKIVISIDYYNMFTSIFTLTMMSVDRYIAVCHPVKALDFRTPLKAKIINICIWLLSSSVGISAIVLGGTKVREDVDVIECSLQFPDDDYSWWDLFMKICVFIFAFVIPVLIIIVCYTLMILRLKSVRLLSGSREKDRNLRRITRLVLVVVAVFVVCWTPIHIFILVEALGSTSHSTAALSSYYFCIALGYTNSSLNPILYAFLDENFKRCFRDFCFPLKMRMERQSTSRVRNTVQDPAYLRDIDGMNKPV
# Experimental: as §1
# M5 = M5 (Homo sapiens, UniProt P08912); assay: NIMH PDSP radioligand binding, M5
# M5, sequence (P08912 whole entry): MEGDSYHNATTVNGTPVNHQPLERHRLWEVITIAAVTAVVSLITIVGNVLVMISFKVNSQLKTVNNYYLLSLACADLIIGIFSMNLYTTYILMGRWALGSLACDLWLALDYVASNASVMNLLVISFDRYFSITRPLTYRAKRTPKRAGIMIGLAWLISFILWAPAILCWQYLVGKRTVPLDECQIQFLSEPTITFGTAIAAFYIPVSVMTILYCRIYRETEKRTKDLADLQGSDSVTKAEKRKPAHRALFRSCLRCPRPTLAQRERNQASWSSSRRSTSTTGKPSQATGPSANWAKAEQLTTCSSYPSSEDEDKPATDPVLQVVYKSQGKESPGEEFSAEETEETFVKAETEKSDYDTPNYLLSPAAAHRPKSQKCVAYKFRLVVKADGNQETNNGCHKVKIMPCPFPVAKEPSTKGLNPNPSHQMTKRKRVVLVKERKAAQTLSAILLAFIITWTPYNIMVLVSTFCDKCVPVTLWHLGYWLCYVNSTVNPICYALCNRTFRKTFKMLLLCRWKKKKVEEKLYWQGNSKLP
# DAT = DAT (Homo sapiens, UniProt Q01959); assay: NIMH PDSP radioligand binding, DAT
# DAT, sequence (Q01959 whole entry): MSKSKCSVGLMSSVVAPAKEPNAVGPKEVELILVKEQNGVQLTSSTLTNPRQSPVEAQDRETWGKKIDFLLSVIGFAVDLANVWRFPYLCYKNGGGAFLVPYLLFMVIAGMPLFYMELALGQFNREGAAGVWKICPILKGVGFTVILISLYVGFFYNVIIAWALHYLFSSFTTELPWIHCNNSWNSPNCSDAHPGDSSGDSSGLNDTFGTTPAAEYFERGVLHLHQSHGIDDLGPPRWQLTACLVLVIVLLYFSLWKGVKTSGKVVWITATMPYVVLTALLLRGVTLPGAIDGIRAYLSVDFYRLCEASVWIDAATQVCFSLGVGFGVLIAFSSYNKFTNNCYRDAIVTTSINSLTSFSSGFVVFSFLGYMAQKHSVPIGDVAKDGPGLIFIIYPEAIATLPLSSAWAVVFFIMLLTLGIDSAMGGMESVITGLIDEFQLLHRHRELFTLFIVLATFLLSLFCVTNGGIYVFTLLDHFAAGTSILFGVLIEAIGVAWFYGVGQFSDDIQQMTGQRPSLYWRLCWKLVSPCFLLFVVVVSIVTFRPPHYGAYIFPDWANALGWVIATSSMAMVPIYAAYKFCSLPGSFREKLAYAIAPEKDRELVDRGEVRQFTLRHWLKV
# Experimental: as §1
# Sprague–Dawley rats [1] = assay: Pre-pulse inhibition (PPI) of acoustic startle in rats; format: in vivo, rat; conditions: for ED50: sc, rat, subcutaneous, read-out: ED50 for reduction of average PPI
# Experimental: (§2) Male Sprague–Dawley rats from Harlan Industries (Indianapolis, IN, USA; initial weight 250–275 g) were housed in pairs under a 12-h reverse light/dark cycle (lights off at 0700 h). Use of a reversed light/dark cycle allows behavioral testing to be conducted during the awake phase of the light/dark cycle. Food and water were available ad libitum. Animals were acclimatized for approximately 1 wk after arrival prior to behavioral testing and maintained in Association for Assessment and Accreditation of Laboratory Animal Care (AAALAC)-approved facilities that meet all federal and state guidelines. Procedures were approved by the University of California San Diego institutional animal care and use committee. Principles of laboratory animal care were followed.
# DPH hydrochloride and 2-MXP hydrochloride were dissolved in water containing 5% Tween-80 and administered subcutaneously, 10-min prior to the start of the startle test session. The injection volume was 1 ml/kg.
# Eight startle chambers (SR-LAB system, San Diego Instruments, San Diego, CA, USA) were used to measure startle reactivity in rats. The startle test chambers were sound-attenuated, lighted, and ventilated enclosures containing a clear nonrestrictive cylindrical Plexiglas stabilimeter, 8.2 cm in diameter. A high-frequency loudspeaker mounted 24 cm above the Plexiglas cylinder produced all acoustic stimuli. The peak and average amplitudes of the startle response were detected by a piezoelectric accelerometer. At the onset of the startling stimulus, 100 1-ms readings were recorded, and the average amplitude was used to determine the magnitude of the startle response (measured in arbitrary units).
# Acoustic startle test sessions consisted of startle trials (pulse-alone) and prepulse trials (prepulse + pulse). The pulse-alone trial consisted of a 40-ms 120-dB pulse of broadband white noise. Prepulse + pulse trials consisted of a 20-ms acoustic prepulse, an 80-ms delay, and then a 40-ms 120-dB startle pulse (100-ms onset–onset). There was an average of 15 s (range = 6–22 s) between trials. During each inter-trial interval, the movements of the animals were recorded once to measure response when no stimulus was present (data not shown). Each startle session began with a 5 min acclimation period to a 65-dB broadband noise that was present continuously throughout the session. One week after arrival, animals were tested in a brief baseline startle/PPI session to create treatment groups matched for levels of startle and PPI. The startle test session contained 12 pulse-alone trials and 36 prepulse + pulse trials (12 prepulses each of 68-, 71-, and 77-dB [equivalent to 3-, 6-, and 12-dB above background]) presented in a pseudo-randomized order. Six pulse-alone trials were presented at the beginning and the end of the test session but were not used in the calculation of PPI values. Raw data for all PPI experiments are provided as supporting information (S5 File).
# The amount of PPI was calculated as a percentage score for each prepulse + pulse trial type: %PPI = 100−{[(startle response for prepulse + pulse trial)/(startle response for pulse-alone trial)] × 100}. Startle magnitude was calculated as the average response to all of the pulse-alone trials. PPI data were analyzed with two-factor analysis of variance (ANOVA) with treatment as the between-subjects factor and trial type (prepulse intensity) as a repeated measure. For experiments in which there was no significant interaction between drug and prepulse intensity, PPI data were collapsed across prepulse intensity and average PPI was used as the main dependent measure. ED50 values were calculated using nonlinear regression. Startle magnitude data were analyzed with one-factor ANOVA. Post-hoc analyses were performed using Tukey’s studentized range method. The alpha level was set at 0.05.
# Sprague–Dawley rats [2] = assay: Acoustic startle response (ASR) magnitude in rats; format: in vivo, rat
# Experimental: as §2, with “Principles of laboratory animal care were followed.” left out
# Eight startle chambers (SR-LAB system, San Diego Instruments, San Diego, CA, USA) were used to measure startle reactivity in rats. […] The peak and average amplitudes of the startle response were detected by a piezoelectric accelerometer. At the onset of the startling stimulus, 100 1-ms readings were recorded, and the average amplitude was used to determine the magnitude of the startle response (measured in arbitrary units).
# Acoustic startle test sessions consisted of startle trials (pulse-alone) and prepulse trials (prepulse + pulse). […] During each inter-trial interval, the movements of the animals were recorded once to measure response when no stimulus was present (data not shown). […]
# [3] = system: PCP site within the NMDAR channel;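 further: IC50 by nonlinear regression of percent specific binding versus log concentration, Ki from IC50 via Cheng-Prusoff, raw counts in CPM, duplicates repeated at least three times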
# Experimental: The reaction was terminated by vacuum filtration using a 24 well cell harvester (Brandel, Gaithersburg, MD) over presoaked GF/B glass fiber filters (Brandel, Gaithersburg, MD). Filters were washed with room temperature assay buffer (3 x 5 mL). […] IC50 values were determined in Graphpad Prism 5.0 using non-linear regression with log-concentration plotted against percent specific binding. […] Ki values were calculated using the equation of Cheng and Prusoff [24]. […] Protein concentration was determined via the Bradford method using Coomassie protein assay reagent (Sigma, USA) [25] with rat albumin (Sigma, USA) as standard. Experiments were performed in duplicate and repeated a minimum of three times.
# NET = NET (Homo sapiens, UniProt P23975); assay: Monoamine reuptake inhibition assay, NET in HEK293 cells; format: cell-based; design: expressed in transfected cells; host or cells: HEK293; conditions: for Hill slope NET reuptake inhibition: HEK293 cells
# NET, sequence (P23975 whole entry): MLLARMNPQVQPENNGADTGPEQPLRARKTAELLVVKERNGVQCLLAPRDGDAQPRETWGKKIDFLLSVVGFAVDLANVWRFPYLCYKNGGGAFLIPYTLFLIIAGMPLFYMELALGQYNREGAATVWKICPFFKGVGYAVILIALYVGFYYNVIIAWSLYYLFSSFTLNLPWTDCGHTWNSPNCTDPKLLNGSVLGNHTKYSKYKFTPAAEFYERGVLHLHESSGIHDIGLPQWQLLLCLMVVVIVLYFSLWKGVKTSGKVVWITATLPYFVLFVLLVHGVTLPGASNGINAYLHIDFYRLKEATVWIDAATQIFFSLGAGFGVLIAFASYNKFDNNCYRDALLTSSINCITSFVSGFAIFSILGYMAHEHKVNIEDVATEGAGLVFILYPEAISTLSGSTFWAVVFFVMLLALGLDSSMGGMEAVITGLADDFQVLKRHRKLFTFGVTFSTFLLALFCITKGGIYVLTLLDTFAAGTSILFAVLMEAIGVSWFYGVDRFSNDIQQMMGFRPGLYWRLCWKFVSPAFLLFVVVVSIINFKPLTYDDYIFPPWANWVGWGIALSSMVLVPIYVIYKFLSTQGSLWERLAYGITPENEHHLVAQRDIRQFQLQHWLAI
# Experimental: Monoamine reuptake inhibition assays were performed via the NIMH PDSP as previously described.[28] In brief, the neurotransmitter transporter uptake assay kit (R8174) (Molecular Devices) was used. Human monoamine transporters (DAT, NET and SERT) were stably expressed in HEK293 cells. Assay buffer consisted of 20 mM HEPES, 1x HBSS at pH 7.4. Cells were plated in Pol-L-Lys (PLL) coated 384-well black clear bottom cell culture plates with a density of 15,000 cells/well. Cells were incubated for at least 6 h prior to assay. Media was removed and replaced with 20 μL assay buffer and 5 μL of drug or positive control (cocaine or nisoxetine) as a 5X stock. Cells were incubated for 30 min at 37°C. 25 μL of dye solution was then added and following an additional 30 min incubation (at 37°C) fluorescence intensity was measured using a FlexStation II (bottom read mode, excitation wavelength = […], emission = 520 nM with a cutoff of 510 nM). […] Additional details are available in the NIMH PDSP assay protocol book.
Structure (SMILES),Ki (Alpha2C) [µM],Ki (KOR) [µM],Ki (M5) [µM],Ki (DAT) [µM],"effect on average PPI (Sprague–Dawley rats [1]; 10 mg/kg s.c., first dose-response experiment)","effect on PPI (Sprague–Dawley rats [1]; 10, 20 and 30 mg/kg s.c., second experiment)",ED50 (Sprague–Dawley rats [1]; 10 min before test) [mg/kg],ED50 (Sprague–Dawley rats [1]; 95% CI in parentheses) [µmol/kg],"effect on magnitude of the ASR (Sprague–Dawley rats [2]; 1.25–30 mg/kg s.c., both experiments)",IC50 [3] [µM],IC50 (NET) [µM],Hill slope NET reuptake inhibition (NET),effect on PPI (Sprague–Dawley rats [1]; 20 mg/kg s.c.),effect on PPI (Sprague–Dawley rats [1]; doses up to 10 mg/kg s.c.),"acoustic startle response (ASR) magnitude (Sprague–Dawley rats [2]; 20 mg/kg s.c., vehicle 175.9 ± 29.2) [arbitrary units]"
"c1ccc(CC(c2ccccc2)N2CCCCC2)cc1 (stereo not shown) [DPH, diphenidine]",3.05,3.9,1.65,0.317,significantly reduced average PPI,reduced PPI at all three prepulse intensities,9.5,31.5,did not alter the magnitude of the ASR,0.0286 ± 0.0035,9.25,0.97,,,
"COc1ccccc1C(Cc1ccccc1)N1CCCCC1 (stereo not shown) [2-MXP, 2-methoxydiphenidine]",1.94,1.69,1.53,2.91,,,,,,0.0565 ± 0.0058,35.2,2.04,did disrupt PPI; also recorded: significant inhibition of PPI,did not alter PPI,78.8 ± 11.9
